Measured values taken from patent US10189838B2, “Aza-oxo-indoles for the treatment and prophylaxis of respiratory syncytial virus infection” (Hoffmann-La Roche Inc., priority 2013, dated 2019).

Each molecule was assayed on RSV Long strain (assay: Viral cytopathic effect (CPE) assay, RSV Long strain). Settings: human respiratory syncytial virus, 144 h, cell viability after 6 days (Cell Counting kit-8).
Format: cell-based, Respiratory Syncytial Virus
Description: EC50: the concentration of a compound where 50% of its maximal protection effect against viral induced CPE is observed
LongStrain: an A subtype RSV strain obtained from ATCC with catalog number VR-26
To measure anti-RSV activity of compounds, 96-well plates are seeded with 6×10^3 cells per well in Dulbecco's modified Eagle's medium (DMEM) containing 10% fetal bovine serum (FBS). Cells are infected the next day with sufficient RSV Long strain (ATCC) to produce an approximately 80-90% cytopathic effect after 6 days, in the presence of serial half-log diluted compound in a total volume of […] per well. The viability of cells is assessed after 6 days using Cell Counting kit-8 (Dojindo Molecular Technologies). The absorbance at 450 nm and referenced at 630 nm is measured to determine 50% effective concentration (EC50)

SMILES | EC50 [nM]
CS(=O)(=O)N1CCN(CCn2c(CN3C(=O)C4(CC4)c4ccncc43)cc3cc(Cl)ccc32)CC1 [Example 27-1, 1′-[(5-Chloro-1-{2-[4-(methylsulfonyl)piperazin-1-yl]ethyl}-1H-indol-2-yl)methyl]spiro[cyclopropane-1,3′-pyrrolo[2,3-c]pyridin]-2′(1′H)-one] | 6
CC(=O)NS(=O)(=O)CCCn1c(CN2C(=O)C3(CC3)c3ccncc32)cc2cc(Cl)cnc21 [Example 26-2, N-[(3-{5-Chloro-2-[(2′-oxospiro[cyclopropane-1,3′-pyrrolo[2,3-c]pyridin]-1′(2′H)-yl)methyl]-1H-pyrrolo[2,3-b]pyridin-1-yl}propyl)sulfonyl]acetamide] | 1920
CS(=O)(=O)CCCCn1c(CN2C(=O)C3(CC3)c3ccncc32)cc2cc(Cl)cnc21 [Example 4-16, 1′-({5-Chloro-1-[4-(methylsulfonyl)butyl]-1H-pyrrolo[2,3-b]pyridin-2-yl}methyl)spiro[cyclopropane-1,3′-pyrrolo[2,3-c]pyridin]-2′(1′H)-one] | 54.9
CCS(=O)(=O)CCCn1c(CN2C(=O)C3(CC3)c3ccncc32)cc2cc(Cl)ccc21 [Example 22-1, 1′-({5-Chloro-1-[3-(ethylsulfonyl)propyl]-1H-indol-2-yl}methyl)spiro[cyclopropane-1,3′-pyrrolo[2,3-c]pyridin]-2′(1′H)-one] | 3
CS(=O)(=O)CCCn1c(CN2C(=O)C3(CC3)c3cccnc32)cc2cc(Cl)ccc21 [Example 22-2, 1′-({5-Chloro-1-[3-(methylsulfonyl)propyl]-1H-indol-2-yl}methyl)spiro[cyclopropane-1,3′-pyrrolo[2,3-b]pyridin]-2′(1′H)-one] | 88
CS(=O)(=O)CCn1c(CN2C(=O)C3(CC3)c3ccncc32)cc2cc(F)cc(F)c21 [Example 1-9, 1′-({5,7-Difluoro-1-[2-(methylsulfonyl)ethyl]-1H-indol-2-yl}methyl)spiro[cyclopropane-1,3′-pyrrolo[2,3-c]pyridin]-2′(1′H)-one] | 24
CS(=O)(=O)CCCn1c(CN2C(=O)C3(CC3)c3ccncc32)cc2cc(Cl)cnc21 [Example 4-3, 1′-({5-Chloro-1-[3-(methylsulfonyl)propyl]-1H-pyrrolo[2,3-b]pyridin-2-yl}methyl)spiro[cyclopropane-1,3′-pyrrolo[2,3-c]pyridin]-2′(1′H)-one] | 37.9
CS(=O)(=O)CCn1c(CN2C(=O)C3(CC3)c3ccncc32)cc2cc(C#N)ccc21 [Example 1-3, 1-[2-(Methylsulfonyl)ethyl]-2-[(2′-oxospiro[cyclopropane-1,3′-pyrrolo[2,3-c]pyridin]-1′(2′H)-yl)methyl]-1H-indole-5-carbonitrile] | 938
CS(=O)(=O)CCCCn1c(CN2C(=O)C3(CC3)c3ccncc32)cc2cc(Cl)ncc21 [Example 4-7, 1′-({5-Chloro-1-[4-(methylsulfonyl)butyl]-1H-pyrrolo[2,3-c]pyridin-2-yl}methyl)spiro[cyclopropane-1,3′-pyrrolo[2,3-c]pyridin]-2′(1′H)-one] | 27
O=C1N(Cc2nc3cc(Cl)ccc3n2CCC2COC2)c2cnccc2C12CC2 [Example 38-2, 1′-({5-Chloro-1-[2-(oxetan-3-yl)ethyl]-1H-benzimidazol-2-yl}methyl)spiro[cyclopropane-1,3′-pyrrolo[2,3-c]pyridin]-2′(1′H)-one] | 3
CS(=O)(=O)CCc1c(CN2C(=O)C3(CC3)c3ccncc32)[nH]c2cc(Cl)ccc12 [Example 32-2, 1′-({6-Chloro-3-[2-(methylsulfonyl)ethyl]-1H-indol-2-yl}methyl)spiro[cyclopropane-1,3′-pyrrolo[2,3-c]pyridin]-2′(1′H)-one] | 5
O=C1N(Cc2cc3cc(Cl)ccc3n2CCCN2CCCS2(=O)=O)c2cnccc2C12CC2 [Example 7-10, 1′-({5-Chloro-1-[3-(1,1-dioxido-1,2-thiazolidin-2-yl)propyl]-1H-indol-2-yl}methyl)spiro[cyclopropane-1,3′-pyrrolo[2,3-c]pyridin]-2′(1′H)-one] | 29
O=C(NCC(F)(F)F)OCCCn1c(CN2C(=O)C3(CC3)c3ccncc32)cc2cc(Cl)ccc21 [Example 31, 3-{5-Chloro-2-[(2′-oxospiro[cyclopropane-1,3′-pyrrolo[2,3-c]pyridin]-1′(2′H)-yl)methyl]-1H-indol-1-yl}propyl(2,2,2-trifluoroethyl)carbamate] | 52
O=C(O)CCn1c(CN2C(=O)C3(CC3)c3ccncc32)cc2cc(Cl)cc(F)c21 [Example 16-2, 3-{5-Chloro-7-fluoro-2-[(2′-oxospiro[cyclopropane-1,3′-pyrrolo[2,3-c]pyridin]-1′(2′H)-yl)methyl]-1H-indol-1-yl}propanoic acid] | 300
O=C1CNC(=O)N1CCn1c(CN2C(=O)C3(CC3)c3ccncc32)cc2cc(Cl)ccc21 [Example 20, 3-(2-{5-Chloro-2-[(2′-oxospiro[cyclopropane-1,3′-pyrrolo[2,3-c]pyridin]-1′(2′H)-yl)methyl]-1H-indol-1-yl}ethyl)imidazolidine-2,4-dione] | 3480
CCS(=O)(=O)CCn1c(CN2C(=O)C3(CC3)c3ccncc32)cc2cc(Cl)ccc21 [Example 2-1, 1′-({5-Chloro-1-[2-(ethylsulfonyl)ethyl]-1H-indol-2-yl}methyl)spiro[cyclopropane-1,3′-pyrrolo[2,3-c]pyridin]-2′(1′H)-one] | 7.67
CS(=O)(=O)CCCn1c(CN2C(=O)C3(CC3)c3ccncc32)cc2cc(Cl)ncc21 [Example 4-13, 1′-({5-Chloro-1-[3-(methylsulfonyl)propyl]-1H-pyrrolo[2,3-c]pyridin-2-yl}methyl)spiro[cyclopropane-1,3′-pyrrolo[2,3-c]pyridin]-2′(1′H)-one] | 26
CCS(=O)(=O)CCn1c(CN2C(=O)C3(CC3)c3cccnc32)cc2cc(Cl)ccc21 [Example 2-3, 1′-({5-Chloro-1-[2-(ethylsulfonyl)ethyl]-1H-indol-2-yl}methyl)spiro[cyclopropane-1,3′-pyrrolo[2,3-b]pyridin]-2′(1′H)-one] | 247
CS(=O)(=O)CCn1c(CN2C(=O)C3(CC3)c3ccncc32)cc2cc(Cl)ccc21 [Example 3-3, 1′-({5-Chloro-1-[2-(methylsulfonyl)ethyl]-1H-indol-2-yl}methyl)spiro[cyclopropane-1,3′-pyrrolo[2,3-c]pyridin]-2′(1′H)-one] | 18
CC(=O)N1CCN(CCn2c(CN3C(=O)C4(CC4)c4ccncc43)cc3cc(Cl)ccc32)CC1 [Example 26-1, 1′-({1-[2-(4-Acetylpiperazin-1-yl)ethyl]-5-chloro-1H-indol-2-yl}methyl)spiro[cyclopropane-1,3′-pyrrolo[2,3-c]pyridin]-2′(1′H)-one] | 25
[2H]C([2H])(c1cc2cc(Cl)ccc2n1CCS(C)(=O)=O)N1C(=O)C2(CC2)c2ccncc21 [Example 9, 1′-[{5-Chloro-1-[2-(methylsulfonyl)ethyl]-1H-indol-2-yl}(^2H2)methyl]spiro[cyclopropane-1,3′-pyrrolo[2,3-c]pyridin]-2′(1′H)-one] | 19
CS(=O)(=O)CCn1c(CN2C(=O)C3(CC3)c3cc(F)ccc32)cc2cc(Cl)cnc21 [Example 2-7, 1′-({5-Chloro-1-[2-(methylsulfonyl)ethyl]-1H-pyrrolo[2,3-b]pyridin-2-yl}methyl)-5′-fluorospiro[cyclopropane-1,3′-indol]-2′(1′H)-one] | 750
CS(=O)(=O)CCCCn1c(CN2C(=O)C3(CC3)c3ccncc32)cc2nc(Cl)ccc21 [Example 4-5, 1′-({5-Chloro-1-[4-(methylsulfonyl)butyl]-1H-pyrrolo[3,2-b]pyridin-2-yl}methyl)spiro[cyclopropane-1,3′-pyrrolo[2,3-c]pyridin]-2′(1′H)-one] | 22.1
CNS(=O)(=O)CCCn1c(CN2C(=O)C3(CC3)c3ccncc32)cc2cc(Cl)cnc21 [Example 25-1, 3-{5-Chloro-2-[(2′-oxospiro[cyclopropane-1,3′-pyrrolo[2,3-c]pyridin]-1′(2′H)-yl)methyl]-1H-pyrrolo[2,3-b]pyridin-1-yl}-N-methylpropane-1-sulfonamide] | 57
COC(=O)CCCn1c(CN2C(=O)C3(CC3)c3ccncc32)cc2cc(Cl)ccc21 [Example 17, Methyl 4-{5-chloro-2-[(2′-oxospiro[cyclopropane-1,3′-pyrrolo[2,3-c]pyridin]-1′(2′H)-yl)methyl]-1H-indol-1-yl}butanoate] | 18.6
O=C(CCn1c(CN2C(=O)C3(CC3)c3ccncc32)cc2cc(Cl)ccc21)NS(=O)(=O)C1CC1 [Example 19-1, 3-{5-Chloro-2-[(2′-oxospiro[cyclopropane-1,3′-pyrrolo[2,3-c]pyridin]-1′(2′H)-yl)methyl]-1H-indol-1-yl}-N-(cyclopropylsulfonyl)propanamide] | 1180
O=C1N(Cc2cc3cc(Cl)ccc3n2CCCCN2CCCS2(=O)=O)c2cnccc2C12CC2 [Example 7-8, 1′-({5-Chloro-1-[4-(1,1-dioxido-1,2-thiazolidin-2-yl)butyl]-1H-indol-2-yl}methyl)spiro[cyclopropane-1,3′-pyrrolo[2,3-c]pyridin]-2′(1′H)-one] | 18
CN(C)S(=O)(=O)CCCn1c(CN2C(=O)C3(CC3)c3ccncc32)cc2cc(Cl)ccc21 [Example 7-1, 3-{5-Chloro-2-[(2′-oxospiro[cyclopropane-1,3′-pyrrolo[2,3-c]pyridin]-1′(2′H)-yl)methyl]-1H-indol-1-yl}-N,N-dimethylpropane-1-sulfonamide] | 7
CCOC(=O)CCn1c(CN2C(=O)C3(CC3)c3ccncc32)cc2cc(Cl)ccc21 [Example 11, Ethyl 3-{5-chloro-2-[(2′-oxospiro[cyclopropane-1,3′-pyrrolo[2,3-c]pyridin]-1′(2′H)-yl)methyl]-1H-indol-1-yl}propanoate] | 19
